Measured values from PubChem BioAssay (NCI).
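Following 48 hours of exposure in 96-well plates, responses at five concentrations were used to interpolate endpoints linearly. GI50 = concentration required for 50% inhibition of growth. TGI: total growth inhibition.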

Columns and labels:
Test in all cases: NCI anticancer screen, dose series, 48 h
A549 NSCLC = test system: A549 NSCLC
HCC-2998 colon = test system: HCC-2998 colon
U251 CNS = test system: U251 CNS
MOLT-4 leukemia = test system: MOLT-4 leukemia
UACC-257 melanoma = test system: UACC-257 melanoma
MCF7 breast = test system: MCF7 breast
OVCAR-5 ovarian = test system: OVCAR-5 ovarian
HOP-92 NSCLC = test system: HOP-92 NSCLC
CAKI-1 renal = test system: CAKI-1 renal
UACC-62 melanoma = test system: UACC-62 melanoma
NCI-H23 lung = test system: NCI-H23 lung
CCRF-CEM leukemia = test system: CCRF-CEM leukemia
SK-MEL-28 melanoma = test system: SK-MEL-28 melanoma
PC-3 prostate = test system: PC-3 prostate
SR leukemia = test system: SR leukemia
KM12 colon = test system: KM12 colon
T-47D breast = test system: T-47D breast
SF-268 CNS = test system: SF-268 CNS
HCT-15 colon = test system: HCT-15 colon
HOP-62 NSCLC = test system: HOP-62 NSCLC
UO-31 renal = test system: UO-31 renal
SK-MEL-5 melanoma = test system: SK-MEL-5 melanoma
SK-OV-3 ovarian = test system: SK-OV-3 ovarian
NCI/ADR-RES ovarian = test system: NCI/ADR-RES ovarian
NCI-H226 lung = test system: NCI-H226 lung
BT-549 breast = test system: BT-549 breast
EKVX NSCLC = test system: EKVX NSCLC
NCI-H460 lung = test system: NCI-H460 lung
HL-60(TB) leukemia = test system: HL-60(TB) leukemia
HS 578T breast = test system: HS 578T breast
HT29 colon = test system: HT29 colon
OVCAR-4 ovarian = test system: OVCAR-4 ovarian
A498 renal = test system: A498 renal
RXF 393 renal = test system: RXF 393 renal
SNB-19 CNS = test system: SNB-19 CNS
RPMI-8226 leukemia = test system: RPMI-8226 leukemia
786-0 renal = test system: 786-0 renal
OVCAR-8 ovarian = test system: OVCAR-8 ovarian
DU-145 prostate = test system: DU-145 prostate
ACHN renal = test system: ACHN renal
M14 melanoma = test system: M14 melanoma
MDA-MB-231 breast = test system: MDA-MB-231 breast
SF-539 CNS = test system: SF-539 CNS
SN12C renal = test system: SN12C renal
SK-MEL-2 melanoma = test system: SK-MEL-2 melanoma
MDA-MB-435 = test system: MDA-MB-435
HCT-116 colon = test system: HCT-116 colon
IGROV1 ovarian = test system: IGROV1 ovarian
COLO 205 colon = test system: COLO 205 colon
K-562 leukemia = test system: K-562 leukemia
SW-620 colon = test system: SW-620 colon
NCI-H522 lung = test system: NCI-H522 lung

Compound: Nc1ccc(-c2nnc(SCc3ccc(O)c4ncccc34)n2-c2ccccc2)cc1
- GI50 (A549 NSCLC): 40.3 nM
- TGI (A549 NSCLC): > 100 µM
- GI50 (HCC-2998 colon): 58.3 nM
- TGI (HCC-2998 colon): > 100 µM
- GI50 (U251 CNS): 25.4 nM
- TGI (U251 CNS): > 100 µM
- GI50 (MOLT-4 leukemia): 48.5 nM
- TGI (MOLT-4 leukemia): > 100 µM
- GI50 (UACC-257 melanoma): 62.2 nM
- GI50 (MCF7 breast): 28.7 nM
- TGI (MCF7 breast): > 100 µM
- GI50 (OVCAR-5 ovarian): 290 nM
- TGI (OVCAR-5 ovarian): > 100 µM
- TGI (HOP-92 NSCLC): 20.3 nM
- GI50 (CAKI-1 renal): 62.7 nM
- TGI (CAKI-1 renal): > 100 µM
- GI50 (UACC-62 melanoma): 65 nM
- TGI (UACC-62 melanoma): 13.2 µM
- GI50 (NCI-H23 lung): 32.2 nM
- TGI (NCI-H23 lung): > 100 µM
- GI50 (CCRF-CEM leukemia): 36.8 nM
- TGI (CCRF-CEM leukemia): > 100 µM
- GI50 (SK-MEL-28 melanoma): 72.4 nM
- TGI (SK-MEL-28 melanoma): > 100 µM
- GI50 (PC-3 prostate): 17 nM
- TGI (PC-3 prostate): > 100 µM
- GI50 (SR leukemia): 44.1 nM
- TGI (SR leukemia): > 100 µM
- GI50 (KM12 colon): 50.4 nM
- TGI (KM12 colon): > 100 µM
- GI50 (T-47D breast): 73.5 nM
- TGI (T-47D breast): > 100 µM
- GI50 (SF-268 CNS): 45.2 nM
- TGI (SF-268 CNS): > 100 µM
- GI50 (HCT-15 colon): 49.8 nM
- TGI (HCT-15 colon): > 100 µM
- GI50 (HOP-62 NSCLC): 66.1 nM
- TGI (HOP-62 NSCLC): > 100 µM
- GI50 (UO-31 renal): 140 nM
- TGI (UO-31 renal): > 100 µM
- GI50 (SK-MEL-5 melanoma): 25.2 nM
- TGI (SK-MEL-5 melanoma): 80.4 nM
- GI50 (SK-OV-3 ovarian): 118 nM
- TGI (SK-OV-3 ovarian): 911 nM
- GI50 (NCI/ADR-RES ovarian): 2290 nM
- TGI (NCI/ADR-RES ovarian): > 100 µM
- GI50 (NCI-H226 lung): 1150 nM
- TGI (NCI-H226 lung): > 100 µM
- GI50 (BT-549 breast): 29.1 nM
- TGI (BT-549 breast): > 100 µM
- GI50 (EKVX NSCLC): 415 nM
- TGI (EKVX NSCLC): > 100 µM
- GI50 (NCI-H460 lung): 19 nM
- TGI (NCI-H460 lung): > 33 µM
- GI50 (HL-60(TB) leukemia): 40.5 nM
- TGI (HL-60(TB) leukemia): > 100 µM
- GI50 (HS 578T breast): 47.8 nM
- TGI (HS 578T breast): > 100 µM
- GI50 (HT29 colon): 890 nM
- TGI (HT29 colon): > 100 µM
- GI50 (OVCAR-4 ovarian): 68.8 nM
- TGI (OVCAR-4 ovarian): > 100 µM
- GI50 (A498 renal): 933 nM
- TGI (A498 renal): > 24.6 µM
- GI50 (RXF 393 renal): 81.6 nM
- TGI (RXF 393 renal): > 100 µM
- GI50 (SNB-19 CNS): 32.3 nM
- TGI (SNB-19 CNS): > 100 µM
- GI50 (RPMI-8226 leukemia): 24.4 nM
- TGI (RPMI-8226 leukemia): > 100 µM
- GI50 (786-0 renal): 238 nM
- TGI (786-0 renal): > 100 µM
- GI50 (OVCAR-8 ovarian): 38.7 nM
- TGI (OVCAR-8 ovarian): > 100 µM
- GI50 (DU-145 prostate): 33.9 nM
- TGI (DU-145 prostate): > 100 µM
- GI50 (ACHN renal): 63.9 nM
- GI50 (M14 melanoma): 40.2 nM
- TGI (M14 melanoma): 4.3 µM
- GI50 (MDA-MB-231 breast): 69.5 nM
- TGI (MDA-MB-231 breast): 98.8 µM
- GI50 (SF-539 CNS): 48 nM
- TGI (SF-539 CNS): > 100 µM
- GI50 (SN12C renal): 31.8 nM
- TGI (SN12C renal): > 100 µM
- GI50 (SK-MEL-2 melanoma): 64.4 nM
- TGI (SK-MEL-2 melanoma): 4.84 µM
- GI50 (MDA-MB-435): 32.1 nM
- TGI (MDA-MB-435): > 100 µM
- GI50 (HCT-116 colon): < 17.2 nM
- TGI (HCT-116 colon): > 37.4 µM
- GI50 (IGROV1 ovarian): 49.7 nM
- TGI (IGROV1 ovarian): > 100 µM
- GI50 (COLO 205 colon): 1010 nM
- TGI (COLO 205 colon): 3.42 µM
- GI50 (K-562 leukemia): 15.2 nM
- TGI (K-562 leukemia): > 100 µM
- GI50 (SW-620 colon): 45.4 nM
- TGI (SW-620 colon): > 100 µM
- GI50 (NCI-H522 lung): 26.8 nM
- TGI (NCI-H522 lung): 6.81 µM
